In the supplement of paper PMC8617591:

How the values were obtained:
[1] = test system: Mycobacterium tuberculosis Erdman (autoluminescent); assay: Einf, fitted maximum growth inhibition of combination (fraction); higher = stronger maximal inhibition
Procedure: (§1)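 DiaMOND equipotent two-drug combination dose responses against autoluminescent M. tuberculosis Erdman in 8 in vitro models. Read-out is OD600, or luminescence for the intracellular and dormancy models, normalised to untreated wells. Hill-fit Einf, AUC25 and GRinf are potency metrics; FIC50 and FIC90 are Loewe-additivity fractional inhibitory concentrations, given as log2 (negative = synergy). Replicates are averaged.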

[2] = test system: Mycobacterium tuberculosis Erdman (autoluminescent); assay: FIC90 (Loewe) at 90% inhibition (log2); higher = more antagonistic
Procedure: as §1

[3] = test system: Mycobacterium tuberculosis Erdman (autoluminescent); assay: GRinf, maximum normalised growth rate inhibition (unitless (-1 to 1)); higher = less effect (negative = killing)
Procedure: as §1

[4] = test system: Mycobacterium tuberculosis Erdman (autoluminescent); assay: AUC25, normalised area under dose response up to IC25 (fraction (0-1)); higher = more potent at low dose
Procedure: as §1

[5] = test system: Mycobacterium tuberculosis Erdman (autoluminescent); assay: FIC50 (Loewe) at 50% inhibition (log2); higher = more antagonistic
Procedure: as §1

COc1nc2ccc(Br)cc2cc1[C@@H](c1ccccc1)[C@@](O)(CCN(C)C)c1cccc2ccccc12 [bedaquiline] + CC(=O)NC[C@H]1CN(c2ccc(N3CCOCC3)c(F)c2)C(=O)O1 [linezolid]
Settings | AUC25, [4] | Einf, [1] | FIC50, [5] | FIC90, [2] | GRinf, [3]
in vitro model: acidic pH 5.7, time point: constant (~7 days, model-specific) | 0.0967 | 0.859 | -0.0767 | – | -0.481
in vitro model: acidic pH 5.7, time point: terminal (~4-5 doublings, model-specific) | 0.0907 | 0.973 | 0.322 | 0.271 | -0.338
in vitro model: intracellular J774, time point: constant = terminal | – | 0.779 | – | – | 0.0692

Settings | AUC25, [4] | Einf, [1] | FIC50, [5] | FIC90, [2] | GRinf, [3]
in vitro model: butyrate, time point: constant (~7 days, model-specific) | 0.0836 | 0.935 | 0.413 | -0.0357 | -0.0894
in vitro model: butyrate, time point: terminal (~4-5 doublings, model-specific) | 0.0548 | 0.955 | 0.268 | 0.0422 | -0.102
in vitro model: cholesterol 0.05 mM, time point: constant (~7 days, model-specific) | 0.153 | 0.803 | 0.123 | – | -0.345
in vitro model: cholesterol 0.05 mM, time point: terminal (~4-5 doublings, model-specific) | 0.147 | 0.945 | -0.0301 | 1.01 | -0.326
in vitro model: cholesterol-high 0.2 mM, time point: constant (~7 days, model-specific) | 0.12 | 0.99 | -0.127 | 0.76 | -0.87
in vitro model: cholesterol-high 0.2 mM, time point: terminal (~4-5 doublings, model-specific) | 0.121 | 1 | -0.334 | 0.414 | -0.851
in vitro model: dormancy (butyrate + nitrate, low O2), time point: constant (~7 days, model-specific) | 0.0774 | 0.933 | 0.344 | 0.554 | 0.113
in vitro model: dormancy (butyrate + nitrate, low O2), time point: terminal (~4-5 doublings, model-specific) | 0.0484 | 0.984 | 0.546 | 0.263 | -0.0845
in vitro model: standard 7H9 glycerol, time point: constant = terminal | 0.0721 | 0.961 | 0.142 | 0.0991 | -0.106
in vitro model: valerate, time point: constant (~7 days, model-specific) | 0.104 | 0.901 | 1.02 | 1.36 | -0.0681
in vitro model: valerate, time point: terminal (~4-5 doublings, model-specific) | 0.067 | 0.947 | 0.743 | 0.916 | -0.0615

COc1nc2ccc(Br)cc2cc1[C@@H](c1ccccc1)[C@@](O)(CCN(C)C)c1cccc2ccccc12 [bedaquiline] + CC(C)/N=c1\cc2n(-c3ccc(Cl)cc3)c3ccccc3nc-2cc1Nc1ccc(Cl)cc1 [clofazimine]
Settings | AUC25, [4] | Einf, [1] | FIC50, [5] | FIC90, [2] | GRinf, [3]
in vitro model: acidic pH 5.7, time point: constant (~7 days, model-specific) | 0.105 | 0.853 | 0.214 | – | -0.265
in vitro model: acidic pH 5.7, time point: terminal (~4-5 doublings, model-specific) | 0.102 | 0.986 | -0.0261 | 0.282 | -0.322
in vitro model: intracellular J774, time point: constant = terminal | – | 0.986 | – | -0.499 | -0.483

Settings | AUC25, [4] | Einf, [1] | FIC50, [5] | FIC90, [2] | GRinf, [3]
in vitro model: butyrate, time point: constant (~7 days, model-specific) | 0.0673 | 0.946 | -0.498 | -0.794 | -0.0975
in vitro model: butyrate, time point: terminal (~4-5 doublings, model-specific) | 0.0515 | 0.979 | -0.353 | -0.858 | -0.101
in vitro model: cholesterol 0.05 mM, time point: constant (~7 days, model-specific) | 0.0912 | 0.741 | -0.628 | – | -0.147
in vitro model: cholesterol 0.05 mM, time point: terminal (~4-5 doublings, model-specific) | 0.0989 | 0.945 | 0.39 | 0.028 | -0.224
in vitro model: cholesterol-high 0.2 mM, time point: constant (~7 days, model-specific) | 0.0661 | 0.946 | -0.437 | -0.58 | -0.413
in vitro model: cholesterol-high 0.2 mM, time point: terminal (~4-5 doublings, model-specific) | 0.0725 | 0.997 | 0.0406 | -0.388 | -0.62
in vitro model: dormancy (butyrate + nitrate, low O2), time point: constant (~7 days, model-specific) | 0.0657 | 0.905 | -0.281 | -0.778 | 0.168
in vitro model: dormancy (butyrate + nitrate, low O2), time point: terminal (~4-5 doublings, model-specific) | 0.067 | 0.988 | -0.558 | -0.863 | -0.267
in vitro model: standard 7H9 glycerol, time point: constant = terminal | 0.0822 | 0.974 | -0.132 | -0.648 | -0.119
in vitro model: valerate, time point: constant (~7 days, model-specific) | 0.112 | 0.94 | -0.453 | -1.82 | -0.151
in vitro model: valerate, time point: terminal (~4-5 doublings, model-specific) | 0.0649 | 0.956 | 0.0093 | -0.0427 | -0.0795

COc1nc2ccc(Br)cc2cc1[C@@H](c1ccccc1)[C@@](O)(CCN(C)C)c1cccc2ccccc12 [bedaquiline] + CC[C@@H](CO)NCCN[C@@H](CC)CO [ethambutol]
Settings | AUC25, [4] | Einf, [1] | FIC50, [5] | FIC90, [2] | GRinf, [3]
in vitro model: acidic pH 5.7, time point: constant (~7 days, model-specific) | 0.133 | 0.831 | 0.111 | – | -0.514
in vitro model: acidic pH 5.7, time point: terminal (~4-5 doublings, model-specific) | 0.0618 | 0.961 | 0.595 | -0.0708 | -0.42
in vitro model: intracellular J774, time point: constant = terminal | – | 1 | – | -0.00203 | -0.728

Settings | AUC25, [4] | Einf, [1] | FIC50, [5] | FIC90, [2] | GRinf, [3]
in vitro model: butyrate, time point: constant (~7 days, model-specific) | 0.0683 | 0.948 | 0.277 | – | -0.0865
in vitro model: butyrate, time point: terminal (~4-5 doublings, model-specific) | 0.0577 | 0.978 | 0.142 | -0.418 | -0.0993
in vitro model: cholesterol 0.05 mM, time point: constant (~7 days, model-specific) | 0.0646 | 0.736 | 0.507 | – | -0.236
in vitro model: cholesterol 0.05 mM, time point: terminal (~4-5 doublings, model-specific) | 0.0688 | 0.956 | 0.89 | 0.731 | -0.404
in vitro model: cholesterol-high 0.2 mM, time point: constant (~7 days, model-specific) | 0.026 | 0.994 | 0.819 | – | -0.858
in vitro model: cholesterol-high 0.2 mM, time point: terminal (~4-5 doublings, model-specific) | 0.0312 | 1 | 0.85 | 0.757 | -0.687
in vitro model: dormancy (butyrate + nitrate, low O2), time point: constant (~7 days, model-specific) | 0.139 | 0.866 | 1.04 | – | 0.338
in vitro model: dormancy (butyrate + nitrate, low O2), time point: terminal (~4-5 doublings, model-specific) | 0.131 | 0.995 | 0.336 | 1.24 | -0.154
in vitro model: standard 7H9 glycerol, time point: constant = terminal | 0.0591 | 0.949 | 0.176 | -0.108 | -0.0657
in vitro model: valerate, time point: constant (~7 days, model-specific) | 0.108 | 0.953 | 0.0258 | – | -0.286
in vitro model: valerate, time point: terminal (~4-5 doublings, model-specific) | 0.0819 | 0.979 | 0.247 | -0.129 | -0.0998
